Reference: US20250154686A1, “COMPOUND LIBRARY” (CHUGAI SEIYAKU KABUSHIKI KAISHA, priority 2021, published 2025)

Target: T1, Bcl-2 protein (Recombinant Human Bcl-2 Protein) (Homo sapiens, UniProt P10415)
T1 construct: purchased Novus Biologicals NBP2-34889
Assay: AS-MS evaluation of binding of the Example 4 mixture library (1200 compounds/well) to Bcl-2, ASMS ratio (%)
Details: AS-MS, Example 4 mixture library; for ASMS ratio (%) n = 2: Bcl-2, replicate n = 2; for ASMS ratio (%) n = 1: Bcl-2, replicate n = 1
Summary of the method: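 ASMS ratio (%) derived from reverse-phase LC/MS of three samples: Bcl-2 (20 μM) incubation after SEC, protein-free standard without SEC, and protein-free blank after SEC. Compounds were pooled at 1200/well, 20 nM each, incubated 1 h, 23 °C, dark, in Tris-HCl pH 7.4 buffer with Tween-20 and DTT.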

T1 sequence (P10415 whole entry): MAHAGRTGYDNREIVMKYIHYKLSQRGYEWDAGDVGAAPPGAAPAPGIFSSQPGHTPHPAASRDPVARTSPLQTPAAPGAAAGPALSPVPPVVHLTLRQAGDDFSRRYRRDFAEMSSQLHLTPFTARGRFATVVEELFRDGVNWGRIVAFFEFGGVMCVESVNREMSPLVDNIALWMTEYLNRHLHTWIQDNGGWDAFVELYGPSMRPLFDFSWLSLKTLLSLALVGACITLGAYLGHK

Structure (SMILES) | ASMS ratio (%) n = 2 | ASMS ratio (%) n = 1
CCOc1cccc(C#Cc2ccccc2C(=O)N2CCN(c3ccc(C(=O)NS(=O)(=O)c4ccc(NCCSc5ccccc5)c(C(F)(F)F)c4)cc3)CC2)c1 [Compound B2R029-01, 4-[4-[2-[2-(3-Ethoxyphenyl)ethynyl]benzoyl]piperazin-1-yl]-N-[4-(2-phenylsulfanylethylamino)-3-(trifluoromethyl)phenyl]sulfonylbenzamide] | 0.0% | –
CCOc1cncc(C#Cc2ccccc2C(=O)N2CCN(c3ccc(C(=O)NS(=O)(=O)c4ccc(NCCSc5ccccc5)c(C(F)(F)F)c4)cc3)CC2)c1 [Compound B2R030-01, 4-[4-[2-[2-(5-Ethoxypyridin-3-yl)ethynyl]benzoyl]piperazin-1-yl]-N-[4-(2-phenylsulfanylethylamino)-3-(trifluoromethyl)phenyl]sulfonylbenzamide] | 4.8% | 0.0%
CCOc1cccc(C#Cc2cncc(C(=O)N3CCN(c4ccc(C(=O)NS(=O)(=O)c5ccc(NCCSc6ccccc6)c(C(F)(F)F)c5)cc4)CC3)c2)c1 [Compound B2R031-01, 4-[4-[5-[2-(3-Ethoxyphenyl)ethynyl]pyridine-3-carbonyl]piperazin-1-yl]-N-[4-(2-phenylsulfanylethylamino)-3-(trifluoromethyl)phenyl]sulfonylbenzamide] | 4.8% | 0.0%
CCOc1cncc(C#Cc2cncc(C(=O)N3CCN(c4ccc(C(=O)NS(=O)(=O)c5ccc(NCCSc6ccccc6)c(C(F)(F)F)c5)cc4)CC3)c2)c1 [Compound B2R032-01, 4-[4-[5-[2-(5-Ethoxypyridin-3-yl)ethynyl]pyridine-3-carbonyl]piperazin-1-yl]-N-[4-(2-phenylsulfanylethylamino)-3-(trifluoromethyl)phenyl]sulfonylbenzamide] | 0.0% | 6.4%
CCOc1cccc(-c2ccccc2CCC(=O)N2CCN(c3ccc(C(=O)NS(=O)(=O)c4ccc(NCCSc5ccccc5)c(C(F)(F)F)c4)cc3)CC2)c1 [Compound B2R033-01, 4-[4-[3-[2-(3-Ethoxyphenyl)phenyl]propanoyl]piperazin-1-yl]-N-[4-(2-phenylsulfanylethylamino)-3-(trifluoromethyl)phenyl]sulfonylbenzamide] | −6.6% | 3.6%
CCOc1cncc(-c2ccccc2CCC(=O)N2CCN(c3ccc(C(=O)NS(=O)(=O)c4ccc(NCCSc5ccccc5)c(C(F)(F)F)c4)cc3)CC2)c1 [Compound B2R034-01, 4-[4-[3-[2-(5-Ethoxypyridin-3-yl)phenyl]propanoyl]piperazin-1-yl]-N-[4-(2-phenylsulfanylethylamino)-3-(trifluoromethyl)phenyl]sulfonylbenzamide] | −1.3% | 0.1%
CCOc1cccc(-c2ccc(C(=O)N3CCN(c4ccc(C(=O)NS(=O)(=O)c5ccc(NCCSc6ccccc6)c(C(F)(F)F)c5)cc4)CC3)c3ccccc23)c1 [Compound B2R035-01] | 0.9% | 8.3%
CCOc1cncc(-c2ccc(C(=O)N3CCN(c4ccc(C(=O)NS(=O)(=O)c5ccc(NCCSc6ccccc6)c(C(F)(F)F)c5)cc4)CC3)c3ccccc23)c1 [Compound B2R036-01, 4-[4-[4-(5-Ethoxypyridin-3-yl)naphthalene-1-carbonyl]piperazin-1-yl]-N-[4-(2-phenylsulfanylethylamino)-3-(trifluoromethyl)phenyl]sulfonylbenzamide] | −0.8% | 3.2%
CCOc1cccc(-c2cc(C(=O)N3CCN(c4ccc(C(=O)NS(=O)(=O)c5ccc(NCCSc6ccccc6)c(C(F)(F)F)c5)cc4)CC3)cc(C(C)(C)C)c2)c1 [Compound B2R037-01, 4-[4-[3-tert-Butyl-5-(3-ethoxyphenyl)benzoyl]piperazin-1-yl]-N-[4-(2-phenylsulfanylethylamino)-3-(trifluoromethyl)phenyl]sulfonylbenzamide] | −7.0% | 6.3%
CCOc1cncc(-c2cc(C(=O)N3CCN(c4ccc(C(=O)NS(=O)(=O)c5ccc(NCCSc6ccccc6)c(C(F)(F)F)c5)cc4)CC3)cc(C(C)(C)C)c2)c1 [Compound B2R038-01, 4-[4-[3-tert-Butyl-5-(5-ethoxypyridin-3-yl)benzoyl]piperazin-1-yl]-N-[4-(2-phenylsulfanylethylamino)-3-(trifluoromethyl)phenyl]sulfonylbenzamide] | −6.0% | 7.1%
CCOc1cccc(-c2cc(C(=O)N3CCN(c4ccc(C(=O)NS(=O)(=O)c5ccc(NCCSc6ccccc6)c(C(F)(F)F)c5)cc4)CC3)cc(C(F)(F)F)c2)c1 [Compound B2R039-01, 4-[4-[3-(3-Ethoxyphenyl)-5-(trifluoromethyl)benzoyl]piperazin-1-yl]-N-[4-(2-phenylsulfanylethylamino)-3-(trifluoromethyl)phenyl]sulfonylbenzamide] | −4.8% | 9.7%
CCOc1cncc(-c2cc(C(=O)N3CCN(c4ccc(C(=O)NS(=O)(=O)c5ccc(NCCSc6ccccc6)c(C(F)(F)F)c5)cc4)CC3)cc(C(F)(F)F)c2)c1 [Compound B2R040-01, 4-[4-[3-(5-Ethoxypyridin-3-yl)-5-(trifluoromethyl)benzoyl]piperazin-1-yl]-N-[4-(2-phenylsulfanylethylamino)-3-(trifluoromethyl)phenyl]sulfonylbenzamide] | 0.2% | 2.6%
CCOc1cccc(C#Cc2cc(C(=O)N3CCN(c4ccc(C(=O)NS(=O)(=O)c5ccc(NCCSc6ccccc6)c(C(F)(F)F)c5)cc4)CC3)cc(C(F)(F)F)c2)c1 [Compound B2R041-01, 4-[4-[3-[2-(3-Ethoxyphenyl)ethynyl]-5-(trifluoromethyl)benzoyl]piperazin-1-yl]-N-[4-(2-phenylsulfanylethylamino)-3-(trifluoromethyl)phenyl]sulfonylbenzamide] | 0.0% | 18.0%
CCOc1cncc(C#Cc2cc(C(=O)N3CCN(c4ccc(C(=O)NS(=O)(=O)c5ccc(NCCSc6ccccc6)c(C(F)(F)F)c5)cc4)CC3)cc(C(F)(F)F)c2)c1 [Compound B2R042-01, 4-[4-[3-[2-(5-Ethoxypyridin-3-yl)ethynyl]-5-(trifluoromethyl)benzoyl]piperazin-1-yl]-N-[4-(2-phenylsulfanylethylamino)-3-(trifluoromethyl)phenyl]sulfonylbenzamide] | 6.0% | 3.4%
CCOc1cccc(-c2cnn(-c3cc(C(=O)N4CCN(c5ccc(C(=O)NS(=O)(=O)c6ccc(NCCSc7ccccc7)c(C(F)(F)F)c6)cc5)CC4)cc(C(F)(F)F)c3)c2)c1 [Compound B2R043-01, 4-[4-[3-[4-(3-Ethoxyphenyl)pyrazol-1-yl]-5-(trifluoromethyl)benzoyl]piperazin-1-yl]-N-[4-(2-phenylsulfanylethylamino)-3-(trifluoromethyl)phenyl]sulfonylbenzamide] | −9.0% | 3.4%
CCOc1cncc(-c2cnn(-c3cc(C(=O)N4CCN(c5ccc(C(=O)NS(=O)(=O)c6ccc(NCCSc7ccccc7)c(C(F)(F)F)c6)cc5)CC4)cc(C(F)(F)F)c3)c2)c1 [Compound B2R044-01, 4-[4-[3-[4-(5-Ethoxypyridin-3-yl)pyrazol-1-yl]-5-(trifluoromethyl)benzoyl]piperazin-1-yl]-N-[4-(2-phenylsulfanylethylamino)-3-(trifluoromethyl)phenyl]sulfonylbenzamide] | −4.1% | −3.7%
CCOc1cccc(-c2ccccc2CN2CCN(c3ccc(C(=O)NS(=O)(=O)c4ccc(NCCSc5ccccc5)c(C(F)(F)F)c4)cc3)CC2)c1 [Compound B2R045-01, 4-[4-[[2-(3-Ethoxyphenyl)phenyl]methyl]piperazin-1-yl]-N-[4-(2-phenylsulfanylethylamino)-3-(trifluoromethyl)phenyl]sulfonylbenzamide] | −3.4% | 4.8%
CCOc1cncc(-c2ccccc2CN2CCN(c3ccc(C(=O)NS(=O)(=O)c4ccc(NCCSc5ccccc5)c(C(F)(F)F)c4)cc3)CC2)c1 [Compound B2R046-01, 4-[4-[[2-(5-ethoxypyridin-3-yl)phenyl]methyl]piperazin-1-yl]-N-[4-(2-phenylsulfanylethylamino)-3-(trifluoromethyl)phenyl]sulfonylbenzamide] | 0.0% | −0.2%
CCOc1cccc(-c2ccc(CN3CCN(c4ccc(C(=O)NS(=O)(=O)c5ccc(NCCSc6ccccc6)c(C(F)(F)F)c5)cc4)CC3)cc2C)c1 [Compound B2R047-01, 4-[4-[[4-(3-Ethoxyphenyl)-3-methylphenyl]methyl]piperazin-1-yl]-N-[4-(2-phenylsulfanylethylamino)-3-(trifluoromethyl)phenyl]sulfonylbenzamide] | −7.8% | 6.6%
CCOc1cncc(-c2ccc(CN3CCN(c4ccc(C(=O)NS(=O)(=O)c5ccc(NCCSc6ccccc6)c(C(F)(F)F)c5)cc4)CC3)cc2C)c1 [Compound B2R048-01] | 7.5% | 9.2%
